Measured values from patent publication US11026426B2, “Oxadiazole and phenol derivatives as antibacterial and/or herbicidal agents” (NORTHERN ILLINOIS RESEARCH FOUNDATION, priority 2017, dated 2021).
Read-outs that look alike come from different tables or passages of the source.

Tests used:
Format in all cases: cell-based
Mycobacterium smegmatis = assay: Antibacterial assay zone of inhibition Ms
Bacillus cereus = assay: Antibacterial assay zone of inhibition Bc
Pseudomonas aeruginosa = assay: Antibacterial assay zone of inhibition Pa
Klebsiella pneumonia = assay: Antibacterial assay zone of inhibition Kp
Micrococcus luteus = assay: Antibacterial assay zone of inhibition Ml
Corynebacterium xerosis = assay: Antibacterial assay zone of inhibition Cx
Escherichia coli = assay: Antibacterial assay zone of inhibition Ec
[1] = test system: Corynebacterium pseudodiphtheriae; assay: Antibacterial assay zone of inhibition Cp
[2] = test system: Burkholderia thailandensis

Row | SMILES | Antibacterial Ms zone of inhibition (Mycobacterium smegmatis; 0.1 mM) [millimeters] | Antibacterial Ms zone of inhibition (Mycobacterium smegmatis; 0.5 mM) [millimeters] | Antibacterial Ms zone of inhibition (Mycobacterium smegmatis; 1 mM) [millimeters] | Antibacterial Bc zone of inhibition (Bacillus cereus; 0.1 mM) [millimeters] | Antibacterial Bc zone of inhibition (Bacillus cereus; 0.5 mM) [millimeters] | Antibacterial Bc zone of inhibition (Bacillus cereus; 1 mM) [millimeters] | Antibacterial Pa zone of inhibition (Pseudomonas aeruginosa; 0.1 mM) [millimeters] | Antibacterial Pa zone of inhibition (Pseudomonas aeruginosa; 0.5 mM) [millimeters] | Antibacterial Pa zone of inhibition (Pseudomonas aeruginosa; 1 mM) [millimeters] | Antibacterial Kp zone of inhibition (Klebsiella pneumonia; 0.1 mM) [millimeters] | Antibacterial Kp zone of inhibition (Klebsiella pneumonia; 0.5 mM) [millimeters] | Antibacterial Kp zone of inhibition (Klebsiella pneumonia; 1 mM) [millimeters] | Antibacterial Ml zone of inhibition (Micrococcus luteus; 0.1 mM) [millimeters] | Antibacterial Ml zone of inhibition (Micrococcus luteus; 0.5 mM) [millimeters] | Antibacterial Ml zone of inhibition (Micrococcus luteus; 1 mM) [millimeters] | Antibacterial Cx zone of inhibition (Corynebacterium xerosis; 0.1 mM) [millimeters] | Antibacterial Cx zone of inhibition (Corynebacterium xerosis; 0.5 mM) [millimeters] | Antibacterial Cx zone of inhibition (Corynebacterium xerosis; 1 mM) [millimeters] | Antibacterial Ec zone of inhibition (Escherichia coli; 0.1 mM) | Antibacterial Ec zone of inhibition (Escherichia coli; 0.5 mM) | also measured
1 | Clc1ccc(OCc2nnc(-c3cc4ccccc4[nH]3)o2)c(Cl)c1 [HGN-810] | 0 | 0 | 0 | 0 | 11 | 16.5 | 0 | 0 | 0 | 0 | 0 | 0 | 0 | 0 | 0 | 0 | 0 | 0 | 0 millimeters | 0 millimeters | Antibacterial Ec zone of inhibition (Escherichia coli; 1 mM): 0 millimeters; Antibacterial Cp zone of inhibition ([1]; 0.1 mM): 0 millimeters; Antibacterial Cp zone of inhibition ([1]; 0.5 mM): 0 millimeters; Antibacterial Cp zone of inhibition ([1]; 1 mM): 0 millimeters; Antibacterial Bt zone of inhibition ([2]; 0.1 mM): 0 11.5 17 millimeters; Antibacterial Bt zone of inhibition ([2]; 0.5 mM): 0 11.5 17 millimeters; Antibacterial Bt zone of inhibition ([2]; 1 mM): 0 11.5 17 millimeters
2 | Cc1ccc(OCc2nnc(-c3nc4ccccc4s3)o2)cc1 [HGN-825] | 0 | 13 | 18 | 0 | 0 | 11.5 | 0 | 0 | 0 | 0 | 0 | 0 | 0 | 0 | 11 | 0 | 0 | 0 | 0 millimeters | 0 millimeters | Antibacterial Ec zone of inhibition (Escherichia coli; 1 mM): 0 millimeters; Antibacterial Cp zone of inhibition ([1]; 0.1 mM): 0 millimeters; Antibacterial Cp zone of inhibition ([1]; 0.5 mM): 0 millimeters; Antibacterial Cp zone of inhibition ([1]; 1 mM): 0 millimeters; Antibacterial Bt zone of inhibition [2]: 0 millimeters
3 | c1ccc(OCc2nnc(-c3nc4ccccc4s3)o2)cc1 [HGN-840] | 0 | 0 | 0 | 0 | 0 | 14.5 | 0 | 0 | 0 | 0 | 0 | 16.5 | 0 | 0 | 0 | 0 | 0 | 0 | 0 millimeters | 0 millimeters | Antibacterial Ec zone of inhibition (Escherichia coli; 1 mM): 0 millimeters; Antibacterial Cp zone of inhibition ([1]; 0.1 mM): 0 millimeters; Antibacterial Cp zone of inhibition ([1]; 0.5 mM): 12 millimeters; Antibacterial Cp zone of inhibition ([1]; 1 mM): 19 millimeters; Antibacterial Bt zone of inhibition [2]: 0 14 17.5 millimeters
4 | CC(C)(C)c1ccc(OCc2nnc(-c3nc4ccccc4s3)o2)cc1 [HGN-836] | 0 | 0 | 0 | 0 | 0 | 13 | 0 | 0 | 0 | 0 | 0 | 7 | 0 | 0 | 0 | 0 | 0 | 11 | 0 NT millimeters | 0 NT millimeters | Antibacterial Cp zone of inhibition ([1]; 0.1 mM): 0 millimeters; Antibacterial Cp zone of inhibition ([1]; 0.5 mM): 0 millimeters; Antibacterial Cp zone of inhibition ([1]; 1 mM): 0 millimeters; Antibacterial Bt zone of inhibition ([2]; 0.1 mM): 0 15 18 millimeters; Antibacterial Bt zone of inhibition ([2]; 0.5 mM): 0 15 18 millimeters; Antibacterial Bt zone of inhibition ([2]; 1 mM): 0 15 18 millimeters
